Measured values as given in patent publication US20260376283A1, “A METHOD IMPLEMENTING MORPHOLOGICAL CHANGES OF EXTRACELLULAR ORGANELLE VESICLES SO AS TO EXAMINE THE TRANSPORTING ACTIVITY OF MEMBRANE TRANSPORT PROTEINS AND OTHER RELATED METHODS” (PARIS SCIENCES ET LETTRES, priority 2023, published 2026).

Tests used:
Assay type in all cases: biochemical
[1] = system: ion pump SERCA localized on Endoplasmic Reticulum vesicles; experiment: Ca2+ pump transporting activity by morphological change (deflation/re-swelling) of ER extracellular organelle vesicles (Example 1)
Description: An initial HKM buffer was prepared with 50 mM Hepes (known as 2-[4-(2-hydroxyethyl)piperazin-1-yl]ethanesulfonic acid), 120 mM potassium acetate, and 1 mM MgCl2 (in Milli-Q water) at pH 7.4. Said initial HKM buffer has an osmolarity of 280±15 mOsm/L.
Then, a membrane tension is applied on cells so as to produce extracellular organelle vesicles without lysing them. At that step, the extracellular organelle vesicles are released (or produced) thanks to the lysis and the removal of the plasma membrane. The membrane tension is carried out by micro-manipulation of the cells under confocal microscope thanks to a micropipette aspiration technique. Micropipette radius is around 1 μm. Thanks to a slight aspiration, a bilayer tongue of the plasma membrane was sucked into the micropipette. The aspiration is then increased at an approximate rate of 10 mbar/min, causing a proportional increase in the bilayer surface tension. At a certain applied tension (e.g. surface tension<0.75 mN/m), the plasma membrane ruptured thanks to a pore opening in the plasma membrane and the extracellular organelle vesicles are released (or extracted).
After extraction, one or more extracellular organelle vesicles are isolated using a micropipette. The micropipettes are used to hold a vesicle during the following methods of the present invention. Before the addition of molecules (ions, sugars or drug molecules), an acquisition is launched to observe the initial size of the vesicle.
Once the acquisition is started, the extracellular organelle vesicle, held by the micropipette is passed through an aqueous solution containing CaCl2 (60 mOsm/L) and ATP (100 μM). Contacting calcium ions with said extracellular organelle vesicle increases the osmolarity of the extravesicular aqueous medium. […] This innovative process allows to examine the transporting activity of the ion pump SERCA localized on Endoplasmic Reticulum vesicles.
(§1) FIG. 1 A) represents an extracellular organelle vesicle of endoplasmic reticulum (ER) which is maintained thanks to a micropipette into a HKM diluted buffer (20 mOsm/L) as an extravesicular aqueous medium. This extracellular organelle vesicle has been isolated thanks to an ER resident protein (KDEL), over-expressed by COS7 cells, before organelle vesicles extraction.
At t=0s, CaCl2 (60 mOsm/L) and ATP (100 μM) were added. At t=20s, the ER extracellular organelle vesicle is deflated: it reached its minimum volume (Vi1) and its associated maximum fluorescence signal (Fl1).
Once the acquisition is started, the ER extracellular organelle vesicle, held by the micropipette is passed through an aqueous solution containing sucrose (60 mOsm). […] Sucrose can thus be used as a control or reference in the method of the present invention.

[2] = system: plasma membrane cell component enriched with SERCA; experiment: Plasma membrane cell component enriched with SERCA, response to CaCl2 (Example 7); settings: role: substrate, CaCl2 60 mOsm/L, ATP 100 μM, SERCA relocalized
Description: (§2) In this example, an Endoplasmic Reticulum extracellular organelle vesicle and a plasma membrane cell component are isolated with micropipettes.
(§3) The SERCA protein is over-expressed in cell 1 on its native organelle, the endoplasmic reticulum. In cell 2, SERCA is relocalized by genetic construction on the plasma membrane cell component. This finally serves to isolate with micropipettes, one endoplasmic reticulum extracellular vesicle with SERCA extracted from cell 1 and one plasma membrane cell component enriched with SERCA deriving from cell 2.
(§4) These extracellular organelle vesicle and plasma membrane cell component were isolated thanks to ER and plasma membrane protein probes, over-expressed by COS7 cells, before organelle vesicle and plasma membrane cell component extraction.
(§5) ER extracellular vesicle and plasma membrane cell component were both put in contact with CaCl2 (60 mOsm/L) and ATP (100 μM) during 5 minutes.
(§6) At t=0s, CaCl2 (60 mOsm/L) and ATP (100 μM) were added.

[3] = system: Endoplasmic Reticulum extracellular organelle vesicle (SERCA over-expressed); experiment: ER vesicle with over-expressed SERCA, response to CaCl2 (Example 7); settings: role: substrate, CaCl2 60 mOsm/L, ATP 100 μM
Description: as §2, §3, §4, §5, §6

[4] = system: Endoplasmic Reticulum extracellular organelle vesicle (SERCA pump); experiment: ER vesicle response to CaCl2 compared with nucleus (Example 6); settings: role: substrate, CaCl2 60 mOsm/L / 20 mOsm/L, ATP 100 μM, FIG. 8
Description: (§7) In this example, an Endoplasmic Reticulum extracellular organelle vesicle and a nucleus cell component are isolated together from a same cell with one micropipette, and visualized. ER extracellular organelle vesicle and nucleus cell component were both put in contact with CaCl2 (20 mOsm/L) and ATP (100 μM) during 5 minutes.
(§8) FIG. 8 represents Endoplasmic Reticulum extracellular organelle vesicle and nucleus cell component are maintained thanks one micropipette into a HKM diluted buffer (30 mOsm/L). The extracellular organelle vesicle and the nucleus cell component were respectively isolated thanks to ER and nucleus probes, over-expressed by COS7 cells, before organelle vesicle and nucleus extraction.
(§9) At t=0s, CaCl2 (60 mOsm/L) and ATP (100 μM) were added. Dotted line circle corresponds to the size of the endoplasmic reticulum vesicle before contacting with CaCl2.

[5] = system: Endoplasmic Reticulum extracellular organelle vesicle (SERCA pump); experiment: SERCA specificity: ER vesicle response to CaCl2 (Example 5); settings: role: substrate, CaCl2 30 mOsm/L, ATP 100 μM, FIG. 7
Description: (§10) In this example, an Endoplasmic Reticulum extracellular organelle vesicle and a mitochondria extracellular organelle vesicle are isolated simultaneously with micropipettes, and visualized. ER and mitochondria extracellular organelle vesicles were both put in contact with CaCl2 (30 mOsm/L) and ATP (100 μM) during one hour.
(§11) FIG. 7 represents Endoplasmic Reticulum extracellular organelle vesicle and mitochondria extracellular organelle vesicle are maintained thanks two micropipettes into a HKM diluted buffer (30 mOsm/L). These extracellular organelle vesicles were isolated thanks to ER and mitochondria resident proteins, over-expressed by COS7 cells, before organelle vesicles extraction.
(§12) At t=0s, CaCl2 (30 mOsm/L) and ATP (100 μM) were added. Dotted line circles all correspond to the size of the vesicle before contacting with CaCl2.

[6] = system: ER extracellular organelle vesicle; experiment: Ca2+ internalization in ER extracellular organelle vesicle by Fluo8-AM fluorescence (Example 3); settings: role: substrate, CaCl2 30 mOsm/L, ATP 100 μM, FIG. 5
Description: FIG. 5 represents an ER extracellular organelle vesicle which is maintained thanks to a micropipette into a HKM diluted buffer (20 mOsm/L). This extracellular organelle vesicle has been isolated thanks to an ER resident protein (KDEL), over-expressed by COS7 cells, before organelle vesicles extraction. Before organelle extraction, cells were incubated during 1 h with a fluorophore called “Fluo8-AM” to report for calcium volumic concentration in organelles thanks to green fluorescence emission.
At t=0s, CaCl2 (30 mOsm/L) and ATP (100 μM) were added. Fluorescence microscopy snaps are visualized on FIG. 5 and show calcium concentration inside the ER extracellular organelle vesicle during the experiment.

[7] = system: nucleus cell component (SERCA pump); experiment: Nucleus cell component response to CaCl2 (Example 6); settings: role: substrate, CaCl2 60 mOsm/L / 20 mOsm/L, ATP 100 μM, FIG. 8
Description: as §7, §8, §9

[8] = system: mitochondria extracellular organelle vesicle; experiment: SERCA specificity: mitochondria vesicle response to CaCl2 (Example 5); settings: role: substrate, CaCl2 30 mOsm/L, ATP 100 μM, FIG. 7
Description: as §10, §11, §12

[9] = system: Ca^2+ pump of the Endoplasmic Reticulum; experiment: Abnormal expression/activity of Ca2+ pump of ER by vesicle morphological change (Example 2)
Description: as §1, with “3” for “1”
At t=0s, CaCl2 (60 mOsm/L) and ATP (100 μM) were added. At t=20s, the ER extracellular organelle vesicle is deflated: it reached its minimum volume (Vi1) and its associated maximum fluorescence signal (Fi1).

[10] = role: substrate, CaCl2 60 mOsm/L, ATP 100 μM, FIG. 1
[11] = role: substrate, CaCl2 60 mOsm/L, ATP 100 μM, FIG. 3

Structure (SMILES): [Ca+2].[Cl-].[Cl-] [CaCl2]
- re-swelling process of vesicle ([1]; role: substrate, 60 mOsm/L, following minutes, CaCl2 with ATP (100 μM), sucrose as control): a re-swelling process is gradually observed
- deflation of vesicle on contacting ([1]; role: substrate, CaCl2 60 mOsm/L with ATP (100 μM), or sucrose 60 mOsm without ATP stated, vesicle internal 20 mOsm/L, COS7 ER vesicle): the vesicle deflates in a few seconds
- time at which vesicle is deflated to minimum volume (Vi1) and maximum fluorescence [1, 10]: 20 s
- time at which vesicle re-swells to final volume and fluorescence (Vf and Ff) [1, 10]: 90 s
- swelling state of vesicle at t=100s ([1]; role: substrate; CaCl2 60 mOsm/L; ATP 100 μM; FIG. 1 B)): the vesicle has almost reached its initial state of swelling
- Vf/Vi1 and Vf/Vi versus reference ratio (transporting activity of SERCA) ([1]; role: substrate, sucrose as reference compound, FIGS. 1 and 2): Vf/Vi1>Vf,ref/Vi1,ref, and Vf/Vi>Vf,ref/Vi,ref
- plasma membrane cell component response 5 min after contacting [2]: has deflated
- ER vesicle volume 5 min after contacting [3]: exhibits a bigger volume as its initial one
- ER vesicle volume 5 min after contacting [4]: exhibits a bigger volume as its initial one
- ER vesicle volume 1h after contacting [5]: exhibits the same volume as its initial one
- internalization in the ER extracellular organelle vesicle [6]: internalized in the ER extracellular organelle vesicle
- Fluo8-AM fluorescence signal (calcium concentration inside vesicle) ([6]; cells incubated 1 h with Fluo8-AM): Fluorescence signal is rising after addition of CaCl2
- nucleus cell component response 5 min after contacting [7]: has deflated with no re-swelling
- mitochondria vesicle volume 1h after contacting [8]: has deflated
- time at which vesicle is deflated to minimum volume (Vi1) and maximum fluorescence (Fi1) [9, 11]: 20 s
- time at which vesicle re-swells to final volume and fluorescence (Vf and Ff) [9, 11]: 90 s
- vesicle volume at t=300s versus initial state ([9]; role: substrate; CaCl2 60 mOsm/L; ATP 100 μM; FIG. 3 B)): reached a higher volume than the initial state
